Earlier results on 1 compound are cited in patent US20190231704A1 (Yale University, priority 2016, published 2019).

The data set addresses T1, ALK4 (Homo sapiens, UniProt P36896).
T1 sequence (P36896 24-505): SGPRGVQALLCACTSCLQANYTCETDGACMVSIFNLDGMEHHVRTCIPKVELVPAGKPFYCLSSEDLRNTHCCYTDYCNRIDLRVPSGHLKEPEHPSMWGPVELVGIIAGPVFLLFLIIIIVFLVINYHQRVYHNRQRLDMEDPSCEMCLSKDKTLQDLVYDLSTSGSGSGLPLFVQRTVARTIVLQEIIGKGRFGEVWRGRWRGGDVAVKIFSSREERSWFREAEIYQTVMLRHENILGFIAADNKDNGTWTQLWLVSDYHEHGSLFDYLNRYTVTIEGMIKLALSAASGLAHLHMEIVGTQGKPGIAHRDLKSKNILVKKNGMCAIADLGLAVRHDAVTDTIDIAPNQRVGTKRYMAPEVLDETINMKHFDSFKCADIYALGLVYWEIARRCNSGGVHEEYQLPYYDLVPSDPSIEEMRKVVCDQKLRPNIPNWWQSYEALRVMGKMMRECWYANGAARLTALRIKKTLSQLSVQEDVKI

On to `Cc1cccc(-c2[nH]c(C(C)(C)C)nc2-c2ccc3c(c2)OCO3)n1` [SB-505124], for which the IC50 is 129 nM.
